Results reported in PubChem BioAssay (NCI).
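These data come from cells grown in 96-well plates and exposed to compound for 48 hours at five concentrations. Abbreviation: GI50, concentration required for 50% inhibition of growth. The concentration for full growth arrest is given as TGI.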

Legend:
Assay in all cases: NCI tumour cell line growth inhibition, 48 h
[1] = test system: 786-0 renal
[2] = test system: A498 renal
[3] = test system: A549 NSCLC
[4] = test system: ACHN renal
[5] = test system: CCRF-CEM leukemia
[6] = test system: COLO 205 colon
[7] = test system: DLD-1 colon
[8] = test system: DMS 114 small cell lung
[9] = test system: EKVX NSCLC
[10] = test system: HCT-116 colon
[11] = test system: HCT-15 colon
[12] = test system: HL-60(TB) leukemia
[13] = test system: HOP-62 NSCLC
[14] = test system: HOP-92 NSCLC
[15] = test system: HT29 colon
[16] = test system: IGROV1 ovarian
[17] = test system: K-562 leukemia
[18] = test system: KM12 colon
[19] = test system: KM20L2 colon
[20] = test system: LOX IMVI melanoma
[21] = test system: LXFL 529 NSCLC
[22] = test system: M14 melanoma
[23] = test system: M19-MEL melanoma
[24] = test system: MALME-3M melanoma
[25] = test system: MOLT-4 leukemia
[26] = test system: NCI-H23 lung
[27] = test system: NCI-H460 lung
[28] = test system: NCI-H522 lung
[29] = test system: OVCAR-3 ovarian
[30] = test system: OVCAR-4 ovarian
[31] = test system: OVCAR-5 ovarian
[32] = test system: OVCAR-8 ovarian
[33] = test system: RPMI-8226 leukemia
[34] = test system: SF-268 CNS
[35] = test system: SF-295 CNS
[36] = test system: SF-539 CNS
[37] = test system: SK-MEL-2 melanoma
[38] = test system: SK-MEL-28 melanoma
[39] = test system: SK-MEL-5 melanoma
[40] = test system: SK-OV-3 ovarian
[41] = test system: SN12C renal
[42] = test system: SNB-19 CNS
[43] = test system: SNB-75 CNS
[44] = test system: SNB-78 CNS
[45] = test system: SW-620 colon
[46] = test system: TK-10 renal
[47] = test system: U251 CNS
[48] = test system: UACC-257 melanoma
[49] = test system: UACC-62 melanoma
[50] = test system: UO-31 renal

NCCN.O=N[O-].O=N[O-].O=N[O-].O=N[O-].[Co+3].[K+]
GI50 [1]: > 100 µM | TGI [1]: > 100 µM | GI50 [2]: > 100 µM | TGI [2]: > 100 µM | GI50 [3]: > 100 µM | TGI [3]: > 100 µM | GI50 [4]: > 100 µM | TGI [4]: > 100 µM | GI50 [5]: > 100 µM | TGI [5]: > 100 µM | GI50 [6]: > 100 µM | TGI [6]: > 100 µM | GI50 [7]: > 100 µM | TGI [7]: > 100 µM | GI50 [8]: > 100 µM | TGI [8]: > 100 µM | GI50 [9]: > 100 µM | TGI [9]: > 100 µM | GI50 [10]: > 100 µM | TGI [10]: > 100 µM | GI50 [11]: > 100 µM | TGI [11]: > 100 µM | GI50 [12]: > 100 µM | TGI [12]: > 100 µM | GI50 [13]: > 100 µM | TGI [13]: > 100 µM | GI50 [14]: 85.7 µM | TGI [14]: > 100 µM | GI50 [15]: > 100 µM | TGI [15]: > 100 µM | GI50 [16]: > 100 µM | TGI [16]: > 100 µM | GI50 [17]: > 100 µM | TGI [17]: > 100 µM | GI50 [18]: > 100 µM | TGI [18]: > 100 µM | GI50 [19]: > 100 µM | TGI [19]: > 100 µM | GI50 [20]: > 100 µM | TGI [20]: > 100 µM | GI50 [21]: > 100 µM | TGI [21]: > 100 µM | GI50 [22]: > 100 µM | TGI [22]: > 100 µM | GI50 [23]: > 100 µM | TGI [23]: > 100 µM | GI50 [24]: > 100 µM | TGI [24]: > 100 µM | GI50 [25]: > 100 µM | TGI [25]: > 100 µM | GI50 [26]: > 100 µM | TGI [26]: > 100 µM | GI50 [27]: > 100 µM | TGI [27]: > 100 µM | GI50 [28]: > 100 µM | TGI [28]: > 100 µM | GI50 [29]: > 100 µM | TGI [29]: > 100 µM | GI50 [30]: > 100 µM | TGI [30]: > 100 µM | GI50 [31]: > 100 µM | TGI [31]: > 100 µM | GI50 [32]: > 100 µM | TGI [32]: > 100 µM | GI50 [33]: > 100 µM | TGI [33]: > 100 µM | GI50 [34]: > 100 µM | TGI [34]: > 100 µM | GI50 [35]: > 100 µM | TGI [35]: > 100 µM | GI50 [36]: > 100 µM | TGI [36]: > 100 µM | GI50 [37]: > 100 µM | TGI [37]: > 100 µM | GI50 [38]: > 100 µM | TGI [38]: > 100 µM | GI50 [39]: > 100 µM | TGI [39]: > 100 µM | GI50 [40]: > 100 µM | TGI [40]: > 100 µM | GI50 [41]: > 100 µM | TGI [41]: > 100 µM | GI50 [42]: > 100 µM | TGI [42]: > 100 µM | GI50 [43]: > 100 µM | TGI [43]: > 100 µM | GI50 [44]: > 100 µM | TGI [44]: > 100 µM | GI50 [45]: > 100 µM | TGI [45]: > 100 µM | GI50 [46]: > 100 µM | TGI [46]: > 100 µM | GI50 [47]: > 100 µM | TGI [47]: > 100 µM | GI50 [48]: > 100 µM | TGI [48]: > 100 µM | GI50 [49]: > 100 µM | TGI [49]: > 100 µM | GI50 [50]: > 100 µM | TGI [50]: > 100 µM
